According to patent US11639372B1, “Zinc-charged peptides for the treatment of cancer and alzheimer's disease” (priority 2021, dated 2023):
Numbered stars: 1 amine (or outer) side, 2 acyl side, 3 side chain; on linkers, the order of the positions; unused ones are H or OH. Bridge positions count the residues as written; N and C are the ends. Square brackets hold non-standard residues; d marks the D form. Ends that are not written are not given here. Peptide text beside a SMILES is read from it. I, II: the chains in the order shown. Actinocin(9to1) = Cc1c2oc3c(C)ccc(C(=O)[*:1])c3nc-2c(C(=O)[*:2])c(N)c1=O; NMeV = CN[C@H](C(=O)O)C(C)C; Sar = CNCC(=O)O

Legend:
[1] = water solubility of the peptides; type: physicochemical; details: uncharged peptide, last amino acid changed
hexokinase II [2] = target: T1, hexokinase II (Homo sapiens, UniProt P52789); test: in vitro hexokinase II assay; type: biochemical
T1 sequence (P52789 1-917): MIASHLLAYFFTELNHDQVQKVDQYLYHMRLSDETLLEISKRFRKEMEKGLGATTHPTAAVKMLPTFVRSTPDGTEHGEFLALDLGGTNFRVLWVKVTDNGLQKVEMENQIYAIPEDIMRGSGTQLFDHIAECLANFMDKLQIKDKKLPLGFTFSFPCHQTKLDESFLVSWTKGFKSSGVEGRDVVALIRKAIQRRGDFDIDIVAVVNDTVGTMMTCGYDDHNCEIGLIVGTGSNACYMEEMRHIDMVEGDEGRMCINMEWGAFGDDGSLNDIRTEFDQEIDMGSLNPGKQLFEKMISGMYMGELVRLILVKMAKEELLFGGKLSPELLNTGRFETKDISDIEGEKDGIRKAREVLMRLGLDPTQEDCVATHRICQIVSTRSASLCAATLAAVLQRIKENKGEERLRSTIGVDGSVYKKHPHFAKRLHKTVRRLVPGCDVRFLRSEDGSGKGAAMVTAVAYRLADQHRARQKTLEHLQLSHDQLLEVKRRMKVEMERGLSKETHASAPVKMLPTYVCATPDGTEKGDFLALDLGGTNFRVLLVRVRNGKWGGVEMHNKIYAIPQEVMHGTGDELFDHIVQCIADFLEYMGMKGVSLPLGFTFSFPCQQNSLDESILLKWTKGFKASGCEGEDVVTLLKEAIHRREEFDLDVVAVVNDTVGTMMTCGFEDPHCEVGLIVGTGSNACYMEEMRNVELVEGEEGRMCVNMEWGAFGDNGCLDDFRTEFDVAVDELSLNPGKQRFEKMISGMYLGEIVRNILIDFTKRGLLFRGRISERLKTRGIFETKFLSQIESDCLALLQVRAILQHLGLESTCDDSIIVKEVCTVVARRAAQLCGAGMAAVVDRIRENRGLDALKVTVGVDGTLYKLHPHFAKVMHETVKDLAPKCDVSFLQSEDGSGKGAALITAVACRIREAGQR
Method: To test confirm that the zinc-charged peptides inhibit hexokinase II resulting in the inhibition of glycolysis, an in vitro hexokinase II assay was performed. FIG. 7 depicts the results of the in vitro hexokinase II assay. In this test, it was observed that hexokinase II was inhibited by zinc-charged 4H in a dose-dependent manner. […] These findings confirm that the zinc-charged peptides inhibit glycolysis at the hexokinase II enzyme level.

[3] = glycolysis and ATP in brain and muscle of normal mice fed zinc-charged 4H; type: in vivo; details: 0.5 mg per mouse per day, 5 days, oral
Method: To further study this observed phenomena in vivo, normal mice were fed with the zinc-charged 4H for five days, and the glycolysis of normal brain cells were studied. FIG. 9 depicts the results of this study. For this study, two groups of mice having four mice per group were compared, one being the control and the other being fed 0.5 mg of zinc-charged 4H per mouse per day for 5 days orally. After 5 days, brain and muscle tissue was collected, homogenized, and assayed for glycolysis rate.
In mice fed with 0.5 mg of zinc-charged 4H for 5 days, the brain glycolysis of these mice was enhanced by 44%.

Calu-1 lung cancer cells = test: glycolysis (lactate) inhibition in cell lysate, Calu-1; type: cell-based
Method: (§1) The zinc-charged peptides ability to inhibit glycolysis in other cancer cell lines, such as lung cancer, compared to their normal counterparts was also tested.

HT-29 cancer cells = test: biochemical analysis of HT-29 cell lysate (lactate, ATP, G-6-P); type: cell-based
Method: To determine the mechanism of induction of apoptosis to HT-29 cancer cells by the zinc-charged peptides, a low concentration (1 μM) of zinc-charged 4H was incubated with HT-29 cancer cells, followed by biochemical analysis of the cell lysate of the HT-29 cancer cells.
Furthermore, the decreased lactate was associated with a lower ATP level and a lower Glucose-6-phosphate (G-6-P) level in HT-29 cells.

normal WI38 lung cells = test: glycolysis (lactate) inhibition in cell lysate, WI38; type: cell-based
Method: as §1

hexokinase II [4] = target: T1, hexokinase II; test: subcellular hexokinase II activity in HT-29 cells; type: cell-based; details: HT-29, 1 μM, 5 hours
Method: FIGS. 14-16 depicts the testing results validating that the zinc-charged peptides inhibit each of these three bioenergetic pathways. FIG. 14 depicts the subcellular hexokinase II activity in mitochondria, cytosol, and microsome to determine whether the zinc-charged peptides inhibit the hexokinase II activity in mitochondria. For this test, HT-29 cancer cells were incubated with zinc-charged 4H at 1 μM for 5 hours. After incubation, sub-cellular fractions including cytosol, microsome, and mitochondria were prepared and the hexokinase II activity on these sub-cellular fractions were tested.

HT-29 colon cancer cells [5] = test: apoptosis in HT-29 cells, combination with chemotherapy drugs; type: cell-based; details: for interaction of chemotherapy drug with the zinc-charged peptide: drug 6 μg per ml 12 hours, then zinc-charged 4H 4 μM for 6 hours
Method: To test this, HT-29 colon cancer cells were pre-incubated with various chemotherapy drugs at 6 μg per ml for 12 hours, then zinc-charged 4H at 4 μM was added for an additional 6 hours. Most chemotherapy drugs take up to 48 hours to see substantial apoptosis, and as such, the cells were pre-incubated with chemotherapy drugs first. The chemotherapy drugs tested included actinomycin (“A”), carmustine (“C”), docorubicin (“Dox”), genistin (“G”), 5-FU, and Tarceva.

[6] = test system: normal colon cell line CCD18Co; test: glycolysis (lactate) inhibition in cell lysate, CCD18Co; type: cell-based
HT-29 colon cancer cells [7] = test: glycolysis (lactate) inhibition in cell lysate, HT-29; type: cell-based
[8] = test system: various cancer cell lines; test: apoptosis-inducing activity on cancer cell lines (earlier work); type: cell-based; details: in vitro cell culture
Description: Cow milk is known to contain numerous proteins and other beneficial compounds for humans.
Since alpha-lactalbumin is the major milk protein present in milk, this protein was first tested to determine if the bioactive peptides were derived from alpha-Lactalbumin. Purified alpha-lactalbumin was therefore treated with EDTA and zinc acetate.

[9] = absorption by gastrointestinal tract (earlier work); type: in vivo; details: before enzymatic digestion with papain

For “EYGLFQISNKK [4H3, E-Y-G-L-F-Q-I-S-N-K-K]”, the “water solubility compared with 4H” value [1] was “more water-soluble”.

For “zinc-charged 4H: peptide E-Y-G-L-F-Q-I-S-N-K-L (SEQ. ID NO. 1) charged with zinc ions by EDTA then zinc acetate treatment (EYGLFQISNKL; also: charged with zinc ions)”, the “hexokinase II inhibition” value (hexokinase II [2]; 5 μM) was 28.6%, the “hexokinase II inhibition” value (hexokinase II [2]; 10 μM) was 79.1% and the “hexokinase II inhibition” value (hexokinase II [2]; 20 μM) was 94.6%. For the same compound, the “enhancement of brain glycolysis” value [3] was 44%, the “increase in brain ATP level” value [3] was 31.4% and the “increase of muscle glycolysis” value [3] was 15%. For the same compound, the inhibition of glycolysis (Calu-1 lung cancer cells) was 11.1%, the “lactate lower than control cells” value (HT-29 cancer cells; 1 μM, HT-29 cell lysate) was 81.4% and the “reduction of intracellular G-6-P level” value (HT-29 cancer cells; HT-29, after 6 hours of incubation) was 39.6%. The inhibition of glycolysis (normal WI38 lung cells) was 0%, the “inhibition of mitochondria associated hexokinase II activity” value (hexokinase II [4]) was 53% and the “percentage of apoptosis in HT-29 cells when added to chemotherapy drugs” value (HT-29 colon cancer cells [5]; zinc-charged 4H 4 μM, 6 hours after 12 hours drug pre-incubation) was “significantly increased”. For the same compound, the inhibition of glycolysis [6] was 10.5% and the inhibition of glycolysis (HT-29 colon cancer cells [7]) was “up to 34.7%”.

In the case of O=c1[nH]cc(F)c(=O)[nH]1 [5-FU], the “interaction of chemotherapy drug with the zinc-charged peptide” value (“interaction of chemotherapy drug” below) (HT-29 colon cancer cells [5]) is reported as “synergistic”.

In the case of “zinc-bound alpha-lactalbumin: purified alpha-lactalbumin treated with EDTA and zinc acetate”, the “apoptosis-inducing activity on various cancer cell lines” value [8] is reported as “contain apoptosis-inducing activity” and the “absorption by gastrointestinal tract” value [9] is reported as “unable to be absorbed”.

In the case of Cc1c2oc3c(C)ccc(C(=O)N[C@@H]4C(=O)N[C@H](C(C)C)C(=O)N5CCC[C@H]5C(=O)N(C)CC(=O)N(C)[C@@H](C(C)C)C(=O)O[C@@H]4C)c3nc-2c(C(=O)N[C@@H]2C(=O)N[C@H](C(C)C)C(=O)N3CCC[C@H]3C(=O)N(C)CC(=O)N(C)[C@@H](C(C)C)C(=O)O[C@@H]2C)c(N)c1=O [actinomycin] (I: T[dV]P[Sar][NMeV] / II: T[dV]P[Sar][NMeV]; ester I:1-I:C, II:1-II:C; linker I:N-II:N via Actinocin(9to1)), the “interaction of chemotherapy drug” value (HT-29 colon cancer cells [5]) is reported as “synergistic”.

In the case of O=c1c(-c2ccc(O)cc2)coc2cc(O[C@@H]3O[C@H](CO)[C@@H](O)[C@H](O)[C@H]3O)cc(O)c12 [genistin], the “interaction of chemotherapy drug” value (HT-29 colon cancer cells [5]) is reported as “synergistic”.

With O=NN(CCCl)C(=O)NCCCl [carmustine] the “interaction of chemotherapy drug” value (HT-29 colon cancer cells [5]) was “synergistic”.

In the case of COc1cccc2c1C(=O)c1c(O)c3c(c(O)c1C2=O)C[C@@](O)(C(=O)CO)C[C@@H]3O[C@H]1C[C@H](N)[C@H](O)[C@H](C)O1 [doxorubicin], the “interaction of chemotherapy drug” value (HT-29 colon cancer cells [5]) is reported as “synergistic”.
